# From patent US8084481B2, “Substituted arylimidazolone and triazolone as inhibitors of vasopressin receptors” (Bayer Pharma Aktiengesellschaft, priority 2006, dated 2011)
# pIC50: −log10 of the molar value.
# Tests used:
# [1] = target: T1, human V1a receptor (Homo sapiens, UniProt P37288); assay: Cellular in vitro test for determination of the vasopressin receptor activity (aequorin luminescence, CHO cells), human V1a; format: cell-based; details: cell line transfected with the human V1a receptor, antagonism of [Arg8]-vasopressin, read-out: IC50 hV1a
# T1 construct: expressed in transfected cells; host or cells: CHO K1 (ATCC), constitutively expressing a modified aequorin
# T1 sequence (P37288 whole entry): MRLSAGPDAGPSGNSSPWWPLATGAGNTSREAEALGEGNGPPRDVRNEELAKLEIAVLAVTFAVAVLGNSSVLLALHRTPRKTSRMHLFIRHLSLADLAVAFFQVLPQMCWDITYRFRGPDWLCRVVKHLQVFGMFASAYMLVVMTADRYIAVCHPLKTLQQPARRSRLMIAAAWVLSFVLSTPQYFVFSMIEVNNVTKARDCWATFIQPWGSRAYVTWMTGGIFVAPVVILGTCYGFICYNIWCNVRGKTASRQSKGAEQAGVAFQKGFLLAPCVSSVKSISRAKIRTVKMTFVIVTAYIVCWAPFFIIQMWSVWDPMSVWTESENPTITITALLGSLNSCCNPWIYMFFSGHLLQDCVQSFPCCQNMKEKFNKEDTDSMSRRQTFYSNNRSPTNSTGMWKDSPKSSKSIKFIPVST
# From the text: (§1) B-1. Cellular In Vitro Test for Determination of the Vasopressin Receptor Activity
# (§2) The identification of agonists and antagonists of the V1a- and V2-vasopressin receptors in man and the rat and the quantification of the activity of the compounds according to the invention are effected by means of recombinant cell lines. These cells are originally derived from the ovarian epithelial cells of the hamster (Chinese Hamster Ovary, CHO K1, ATCC: American Type Culture Collection, Manassas, Va. 20108, USA). The test cell lines constitutively express a modified form of the calcium-sensitive photoprotein aequorin, which after reconstitution with the cofactor coelenterazine emits light on an increase in the free calcium concentrations [Rizzuto R, Simpson A W, Brini M, Pozzan T, Nature 358, 325-327 (1992)]. In addition, the cells are stably transfected with human or rat V1a- or V2 receptors. In the case of the Gs-coupled V2 receptors, the cells are stably transfected with a further gene which codes for the promiscuous Gα16-Protein [Amatruda T T, Steele D A, Slepak V Z, Simon M I, Proceedings of the National Academy of Science USA 88, 5587-5591 (1991)]. The resulting vasopressin receptor test cells react to stimulation of the recombinantly expressed vasopressin receptors with an intracellular release of calcium ions, which can be quantified by the resulting aequorin luminescence with a suitable luminometer [Milligan G, Marshall F, Rees S, Trends in Pharmacological Sciences 17, 235-237 (1996)].
# (§3) On the day before the text, the cells are plated out in culture medium (DMEM, 10% FCS, 2 mM glutamine, 10 mM HEPES) in 384-well microtitre plates and kept in a cell incubator (96% atmospheric humidity, 5% v/v CO2, 37° C.). On the test day, the culture medium is replaced by a Tyrode solution (140 mM NaCl, 5 mM KCl, 1 mM MgCl2, 2 mM CaCl2, 20 mM glucose, 20 mM HEPES) which in addition contains the cofactor coelenterazine (50 μM), and the microtitre plate is then incubated for a further 3-4 hours. The test substances in various concentrations are placed beforehand in the wells of the microtitre plate for 10 to 20 minutes, before the agonist [Arg^8]-vasopressin is added and the resulting light signal immediately measured in the luminometer. The IC50 values are calculated by means of the computer program GraphPad PRISM (Version 3.02).
# [2] = target: T2, human V2 receptor (Homo sapiens, UniProt P30518); assay: Cellular in vitro test for determination of the vasopressin receptor activity (aequorin luminescence, CHO cells), human V2; format: cell-based; details: cell line transfected with the human V2 receptor, antagonism of [Arg8]-vasopressin, read-out: IC50 hV2
# T2 construct: expressed in transfected cells; host or cells: CHO K1 (ATCC), constitutively expressing a modified aequorin and stably co-transfected with promiscuous G-alpha-16
# T2 sequence (P30518 whole entry): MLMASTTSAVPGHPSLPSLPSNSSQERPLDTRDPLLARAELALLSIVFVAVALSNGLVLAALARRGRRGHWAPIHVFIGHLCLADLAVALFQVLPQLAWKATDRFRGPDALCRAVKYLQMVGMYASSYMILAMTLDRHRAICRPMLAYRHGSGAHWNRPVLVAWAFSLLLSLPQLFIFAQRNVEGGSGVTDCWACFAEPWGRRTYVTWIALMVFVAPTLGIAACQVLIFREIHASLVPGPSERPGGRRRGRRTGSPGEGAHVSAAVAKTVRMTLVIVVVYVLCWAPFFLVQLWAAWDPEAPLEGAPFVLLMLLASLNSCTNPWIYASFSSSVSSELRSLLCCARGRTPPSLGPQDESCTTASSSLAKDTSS
# From the text: as §1, §2, §3
smiles,measurement,setting,value
"O=C(Cn1nc(-c2ccc(Cl)cc2)n(CC(O)C(F)(F)F)c1=O)N[C@@H]1C[C@@H]1c1cccc(C(F)(F)F)c1 (mixture of isomers) [Example 357, 2-[3-(4-chlorophenyl)-5-oxo-4-(3,3,3-trifluoro-2-hydroxypropyl)-4,5-dihydro-1H-1,2,4-triazol-1-yl]-N-{(1RS,2RS)-[2-(3-trifluoromethyl-phenyl)cyclopropyl]}-acetamide]",pIC50,[1],6.47
same,pIC50,[2],8.30
"CC(C)(NC(=O)Cn1nc(-c2ccc(Cl)cc2)n(CC(O)C(F)(F)F)c1=O)c1cccc(C(F)(F)F)c1 (single isomer, unassigned) [Example 451, 2-[3-(4-chlorophenyl)-5-oxo-4-(3,3,3-trifluoro-2-hydroxypropyl)-4,5-dihydro-1H-1,2,4-triazol-1-yl]-N-{1-methyl-1-[3-(trifluoromethyl)phenyl]ethyl}-acetamide]",pIC50,[1],7.92
same,pIC50,[2],8.70
"CCC(O)Cn1c(-c2ccc(Cl)cc2)nn(CC(=O)NC(C)(C)c2cccc(C(F)(F)F)c2)c1=O (single isomer, unassigned) [Example 485, 2-[3-(4-chlorophenyl)-5-oxo-4-(2-hydroxybutyl)-4,5-dihydro-1H-1,2,4-triazol-1-yl]-N-{1-methyl-1-[3-(trifluoromethyl)phenyl]ethyl}-acetamide]",pIC50,[1],7.92
same,pIC50,[2],8.70
"CC(C)(NC(=O)Cn1cc(-c2ccc(Cl)cc2)n(CC(O)C(F)(F)F)c1=O)c1cccc(C(F)(F)F)c1 (single isomer, unassigned) [Example 501, 2-[4-(4-chlorophenyl)-2-oxo-3-(3,3,3-trifluoro-2-hydroxypropyl)-2,3-dihydro-1H-imidazol-1-yl]-N-{1-methyl-1-[3-(trifluoromethyl)phenyl]ethyl}-acetamide]",pIC50,[1],7.92
same,pIC50,[2],8.52
O=C(CCn1nc(-c2ccc(Cl)cc2)n(C2CC2)c1=O)NCc1cccc(C(F)(F)F)c1 [Example 25],pIC50,[1],5.20
same,pIC50,[2],6.74
CC(NC(=O)Cn1nc(-c2ccc(Cl)cc2)n(C2CC2)c1=O)c1ccccc1C(F)(F)F (centres unmarked) [Example 28],pIC50,[1],7.52
same,pIC50,[2],6.74
COc1ccc(Cn2c(-c3ccc(Cl)cc3)nn(CC(=O)NC(C)(C)c3cccc(C(F)(F)F)c3)c2=O)cc1 [Example 29],pIC50,[1],6.77
same,pIC50,[2],8.05
O=C(Cn1nc(-c2ccc(Cl)cc2)n(CC2CCCCC2)c1=O)NCc1cccc(C(F)(F)F)c1 [Example 59],pIC50,[1],5.96
same,pIC50,[2],8.05
CC(C)Cn1c(-c2ccc(Cl)s2)nn(CC(=O)NCc2ccccc2C(F)(F)F)c1=O [Example 63],pIC50,[1],7.42
same,pIC50,[2],< 5.00
"CC(C)(NC(=O)Cn1nc(-c2ccc(Cl)cc2)n(C2CC2)c1=O)c1cccc(C(F)(F)F)c1 [Example 75, 2-[3-(4-chlorophenyl)-4-cyclopropyl-5-oxo-4,5-dihydro-1H-1,2,4-triazol-1-yl]-N-{1-methyl-1-[3-(trifluoromethyl)phenyl]ethyl}acetamide]",pIC50,[1],6.41
same,pIC50,[2],7.59
CC(C)Cn1c(-c2ccc(Cl)s2)nn(CC(=O)NC(C)(C)c2cccc(C(F)(F)F)c2)c1=O [Example 84],pIC50,[1],6.49
same,pIC50,[2],8.10
CCn1c(-c2ccc(Cl)cc2)nn(CC(=O)NCc2ccccc2C(F)(F)F)c1=O [Example 101],pIC50,[1],7.03
same,pIC50,[2],5.96
O=C(Cn1nc(-c2ccc(Cl)cc2)n(Cc2ccc(F)cc2)c1=O)NCc1cccc(C(F)(F)F)c1 [Example 143],pIC50,[1],6.02
same,pIC50,[2],8.22
O=C(Cn1nc(-c2ccc(Cl)cc2)n(Cc2ccccc2F)c1=O)NCc1cccc(C(F)(F)F)c1 [Example 145],pIC50,[1],7.02
same,pIC50,[2],8.15
CC(C)Cn1c(-c2ccccc2-c2ccccc2)nn(CC(=O)NCc2cccc(C(F)(F)F)c2)c1=O [Example 151],pIC50,[1],5.47
same,pIC50,[2],6.03
"COc1ccc(Cn2c(-c3ccc(Cl)cc3)nn(CC(=O)NCc3cccc(C(F)(F)F)c3)c2=O)cc1 [Example 153, 2-[3-(4-chlorophenyl)-4-(4-methoxyphenylmethyl)-5-oxo-4,5-dihydro-1H-1,2,4-triazol-1-yl]-N-[3-(trifluoromethyl)phenylmethyl]acetamide]",pIC50,[1],7.38
same,pIC50,[2],7.92
COc1ccccc1CCNC(=O)Cn1nc(-c2ccc(Cl)cc2)n(C2CC2)c1=O [Example 159],pIC50,[1],6.36
same,pIC50,[2],6.38
Cc1c(-c2ccc(Cl)cc2)n(C2CC2)c(=O)n1CC(=O)N[C@@H](C)c1cccc2ccccc12 [Example 207],pIC50,[1],6.64
same,pIC50,[2],7.20
CCn1c(-c2ccc(Cl)cc2)cn(CC(=O)NC(C)c2cccc(C(F)(F)F)c2)c1=O (centres unmarked) [Example 209],pIC50,[1],6.85
same,pIC50,[2],6.59
CC(C(=O)NC(C)(C)c1cccc(C(F)(F)F)c1)n1cc(-c2ccc(Cl)cc2)n(C2CC2)c1=O (centres unmarked) [Example 214],pIC50,[1],5.20
same,pIC50,[2],6.74
"COc1cc(Cl)ccc1-c1nn(CC(=O)NC(C)(C)c2cccc(C(F)(F)F)c2)c(=O)n1Cc1ccccc1F [Example 216, 2-[3-(4-chloro-2-methoxyphenyl)-4-(2-fluorobenzyl)-5-oxo-4,5-dihydro-1H-1,2,4-triazol-1-yl]-N-[1-methyl-1-(3-trifluoromethyl-phenyl)ethyl]-acetamide]",pIC50,[1],7.14
same,pIC50,[2],8.22
Cc1ccc(-c2nn(CC(=O)NC(C)(C)c3cccc(C(F)(F)F)c3)c(=O)n2Cc2ccccc2F)s1 [Example 219],pIC50,[1],7.05
same,pIC50,[2],8.05
CC(C)(NC(=O)Cn1nc(-c2ccc(F)c(F)c2)n(Cc2ccccc2F)c1=O)c1cccc(C(F)(F)F)c1 [Example 221],pIC50,[1],6.78
same,pIC50,[2],7.52
COc1cc(Cl)ccc1-c1nn(CC(=O)NCc2ccccc2C(F)(F)F)c(=O)n1Cc1ccccc1F [Example 227],pIC50,[1],8.10
same,pIC50,[2],7.43
CC(C)(NC(=O)Cn1nc(-c2ccc(Cl)cc2Cl)n(C2CC2)c1=O)c1cccc(C(F)(F)F)c1 [Example 230],pIC50,[1],6.11
same,pIC50,[2],7.08
Cc1cc(Cl)ccc1-c1nn(CC(=O)NCCc2ccccc2C(F)(F)F)c(=O)n1Cc1ccccc1F [Example 241],pIC50,[1],7.12
same,pIC50,[2],6.57
C[C@H](NC(=O)Cn1nc(-c2ccc(Cl)s2)n(Cc2ccccc2F)c1=O)c1cccc(C(F)(F)F)c1 [Example 251],pIC50,[1],7.43
same,pIC50,[2],7.89
CC(NC(=O)Cn1nc(-c2ccc(Cl)s2)n(Cc2ccccc2F)c1=O)c1nccc2ccccc12 (centres unmarked) [Example 252],pIC50,[1],7.74
same,pIC50,[2],6.35
O=C(Cn1nc(-c2ccccc2O)n(Cc2cccc(F)c2)c1=O)NCCc1ccccc1C(F)(F)F [Example 260],pIC50,[1],7.52
same,pIC50,[2],6.81
COc1cc(Cl)ccc1-c1nn(CC(=O)NC(C)(C)c2cccc(C(F)(F)F)c2)c(=O)n1Cc1cccc(F)c1 [Example 262],pIC50,[1],6.80
same,pIC50,[2],8.30
CN(C)C(CNC(=O)Cn1nc(-c2ccc(Cl)cc2)n(Cc2ccccc2F)c1=O)c1ccccc1Cl (centres unmarked) [Example 265],pIC50,[1],7.55
same,pIC50,[2],6.13
O=C(Cn1nc(-c2ccc(Cl)cc2)n(Cc2ccccc2F)c1=O)NC1(Cc2ccccc2C(F)(F)F)CC1 [Example 284],pIC50,[1],8.05
same,pIC50,[2],6.72
O=C(Cn1nc(-c2ccc(Cl)cc2)n(Cc2ccccc2F)c1=O)NCc1c(C(F)(F)F)cccc1C(F)(F)F [Example 288],pIC50,[1],6.12
same,pIC50,[2],6.18
O=C(Cn1nc(-c2ccc(Cl)cc2)n(Cc2ccccc2F)c1=O)NCc1cccc(C(F)(F)F)c1Cl [Example 296],pIC50,[1],7.27
same,pIC50,[2],8.05
O=C(Cn1nc(-c2ccc(Cl)cc2)n(C2CC2)c1=O)NCC1(c2ccccc2F)CCCC1 [Example 305],pIC50,[1],7.03
same,pIC50,[2],6.11
CC(C)(CNC(=O)Cn1nc(-c2ccc(Cl)cc2)n(C2CC2)c1=O)c1ccccc1C(F)(F)F [Example 313],pIC50,[1],8.52
same,pIC50,[2],5.99
O=C(Cn1nc(-c2ccc(Cl)cc2)n(C2CC2)c1=O)NC1(Cc2ccccc2C(F)(F)F)CC1 [Example 320],pIC50,[1],7.62
same,pIC50,[2],5.82
COC(=O)[C@@H](Cc1ccccc1C(F)(F)F)NC(=O)Cn1nc(-c2ccc(Cl)cc2)n(C2CC2)c1=O [Example 321],pIC50,[1],7.30
same,pIC50,[2],6.29
Cc1c(CNC(=O)Cn2nc(-c3ccc(Cl)cc3)n(C3CC3)c2=O)cccc1C(F)(F)F [Example 325],pIC50,[1],6.97
same,pIC50,[2],7.55
O=C(Cn1nc(-c2ccc(Cl)cc2)n(C2CC2)c1=O)NC(C(=O)NC1CC1)c1ccccc1C(F)(F)F (centres unmarked) [Example 340],pIC50,[1],7.41
same,pIC50,[2],5.94
